Data on 27 compounds can be found in US10544149B2, “Bicyclic alkyne derivatives and uses thereof” (Agency for Science, Technology and Research, priority 2013, dated 2020).

For test [1], the target named is MNK1 (Homo sapiens, UniProt Q9BUB5). Nature of the test: MNK1 enzymatic assay. It is filed as biochemical.
Test [2] has as its target MNK2 (Homo sapiens, UniProt Q9HBH9). Nature of the test: MNK2 enzymatic assay. In kind it is biochemical.
Test [3] has as its system eIF4e phosphorylation in Hela cell line. Put plainly: eIF4e phosphorylation inhibition in Hela cell line. Particulars: Homo sapiens, cellular. In kind it is cell-based.

MNK1, sequence (Q9BUB5 whole entry): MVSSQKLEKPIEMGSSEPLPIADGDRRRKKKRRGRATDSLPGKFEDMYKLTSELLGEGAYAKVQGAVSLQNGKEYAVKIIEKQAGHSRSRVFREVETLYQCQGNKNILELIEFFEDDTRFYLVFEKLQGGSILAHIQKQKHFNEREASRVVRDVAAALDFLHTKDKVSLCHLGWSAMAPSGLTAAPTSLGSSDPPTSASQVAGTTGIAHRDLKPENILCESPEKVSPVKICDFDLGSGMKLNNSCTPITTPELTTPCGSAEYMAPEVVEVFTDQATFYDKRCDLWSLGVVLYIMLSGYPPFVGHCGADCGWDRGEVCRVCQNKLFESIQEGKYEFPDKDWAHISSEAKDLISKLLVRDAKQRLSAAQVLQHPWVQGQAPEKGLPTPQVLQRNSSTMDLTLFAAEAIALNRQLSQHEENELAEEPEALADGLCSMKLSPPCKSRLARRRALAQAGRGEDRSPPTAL
MNK2, sequence (Q9HBH9 whole entry): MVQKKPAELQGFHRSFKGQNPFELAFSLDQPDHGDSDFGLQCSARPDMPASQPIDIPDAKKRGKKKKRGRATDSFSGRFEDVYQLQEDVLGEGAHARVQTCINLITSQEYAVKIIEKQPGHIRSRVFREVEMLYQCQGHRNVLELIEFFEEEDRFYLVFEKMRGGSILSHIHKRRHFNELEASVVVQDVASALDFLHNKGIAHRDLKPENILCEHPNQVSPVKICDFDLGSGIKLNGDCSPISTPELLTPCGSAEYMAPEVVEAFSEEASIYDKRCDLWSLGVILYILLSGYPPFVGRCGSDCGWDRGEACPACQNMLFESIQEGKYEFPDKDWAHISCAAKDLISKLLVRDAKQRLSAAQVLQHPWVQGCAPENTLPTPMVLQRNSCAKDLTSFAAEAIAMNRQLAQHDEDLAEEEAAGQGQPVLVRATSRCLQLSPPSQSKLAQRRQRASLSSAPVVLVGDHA

In the case of `O=C(c1ccc(-c2ccc3ncc(C#Cc4ccnc(Nc5ccccn5)c4)n3n2)cc1)N1CCOCC1` [Example 048, morpholino(4-(3-((2-(pyridin-2-ylamino)pyridin-4-yl)ethynyl)imidazo[1,2-b]pyridazin-6-yl)phenyl)methanone], the IC50 in test [1] was less than 0.5 µM; in test [2], less than 0.5 µM; in test [3], less than 5 µM.
With `O=C(c1ccc(-c2ccc3ncc(C#Cc4ccnc(Nc5cccnc5)c4)n3n2)cc1)N1CCOCC1` [Example 049, morpholino(4-(3-((2-(pyridin-3-ylamino)pyridin-4-yl)ethynyl)imidazo[1,2-b]pyridazin-6 yl)phenyl)methanone], the IC50 in test [1] is less than 0.5 µM; in test [2] it was less than 0.5 µM; in test [3], less than 5 µM.
Turning to `O=C(c1ccc(-c2ccc3ncc(C#Cc4ccnc(Nc5ccccc5)c4)n3n2)cc1)N1CCOCC1` [Example 051, morpholino(4-(3-((2-(phenylamino)pyridin-4-yl)ethynyl)imidazo[1,2-b]pyridazin-6-yl)phenyl)methanone], the IC50 in test [1] was less than 0.5 µM; in test [2] it was less than 0.5 µM; in test [3], less than 5 µM.
Consider `Cc1ccccc1Nc1cc(C#Cc2cnc3ccc(-c4ccc(C(=O)N5CCOCC5)cc4)nn23)ccn1` [Example 052, morpholino(4-(3-((2-(o-tolylamino)pyridin-4-yl)ethynyl)imidazo[1,2-b]pyridazin-6-yl)phenyl)methanone], for which the IC50 in test [1] is less than 0.5 µM; in test [2], less than 0.5 µM; in test [3], less than 5 µM.
Consider `O=C(c1ccc(-c2ccc3ncc(C#Cc4ccnc(Nc5nccs5)c4)n3n2)cc1)N1CCOCC1` [Example 053, morpholino(4-(3-((2-(thiazol-2-ylamino)pyridin-4-yl)ethynyl)imidazo[1,2-b]pyridazin-6-yl)phenyl)methanone], for which the IC50 in test [1] was less than 0.5 µM; in test [2], less than 0.5 µM; in test [3], less than 5 µM.
With `O=C(c1ccc(-c2ccc3ncc(C#Cc4ccnc(Nc5ccncn5)c4)n3n2)cc1)N1CCOCC1` [Example 054, morpholino(4-(3-((2-(pyrimidin-4-ylamino)pyridin-4-yl)ethynyl)imidazo[1,2-b]pyridazin-6-yl)phenyl)methanone], the IC50 in test [1] is less than 0.5 µM; in test [2] it was less than 0.5 µM; in test [3] it was less than 5 µM.
In the case of `O=C(c1ccc(-c2ccc3ncc(C#Cc4ccnc(Nc5ccccc5C(F)(F)F)c4)n3n2)cc1)N1CCOCC1` [Example 055, morpholino(4-(3-((2-((2-(trifluoromethyl)phenyl)amino)pyridin-4-yl)ethynyl)imidazo[1,2-b]pyridazin-6-yl)phenyl)methanone], the IC50 in test [1] is less than 0.5 µM; in test [2] it was less than 0.5 µM; in test [3], less than 5 µM.
On to `O=C(c1ccc(-c2ccc3ncc(C#Cc4ccnc(Nc5ncccn5)c4)n3n2)cc1)N1CCOCC1` [Example 056, morpholino(4-(3-((2-(pyrimidin-2-ylamino)pyridin-4-yl)ethynyl)imidazo[1,2-b]pyridazin-6 yl)phenyl)methanone], for which the IC50 was less than 0.5 µM in test [1], less than 0.5 µM in test [2] and less than 5 µM in test [3].
As for `Cc1cccc(Nc2cc(C#Cc3cnc4ccc(-c5ccc(C(=O)N6CCOCC6)cc5)nn34)ccn2)c1` [Example 057, morpholino(4-(3-((2-(m-tolylamino)pyridin-4-yl)ethynyl)imidazo[1,2-b]pyridazin-6-yl)phenyl)methanone], the results for the IC50 in test [1], in test [2] and in test [3] were less than 0.5 µM, less than 0.5 µM and less than 5 µM, respectively.
For the compound `Cc1ccc(Nc2cc(C#Cc3cnc4ccc(-c5ccc(C(=O)N6CCOCC6)cc5)nn34)ccn2)cc1` [Example 058, morpholino(4-(3-((2-(p-tolylamino)pyridin-4-yl)ethynyl)imidazo[1,2-b]pyridazin-6-yl)phenyl)methanone], the IC50 in test [1] was less than 0.5 µM; in test [2] it was less than 0.5 µM; in test [3], less than 5 µM.
`CC(C)c1ccccc1Nc1cc(C#Cc2cnc3ccc(-c4ccc(C(=O)N5CCOCC5)cc4)nn23)ccn1` [Example 059, (4-(3-((2-(2-isopropylphenylamino)pyridin-4-yl)ethynyl)imidazo[1,2-b]pyridazin-6-yl)phenyl)(morpholino)methanone]: the IC50 in test [1] was less than 0.5 µM; in test [2], less than 0.5 µM; in test [3], less than 5 µM.
As to `O=C(c1ccc(-c2ccc3ncc(C#Cc4ccnc(Nc5ccccc5-c5ccccc5)c4)n3n2)cc1)N1CCOCC1` [Example 060, (4-(3-((2-(biphenyl-2-ylamino)pyridin-4-yl)ethynyl)imidazo[1,2-b]pyridazin-6-yl)phenyl)(morpholino)methanone], the IC50 in test [1] is less than 0.5 µM; in test [2] it was less than 0.5 µM; in test [3] it was less than 5 µM.
`Cc1ccccc1C(=O)Nc1cc(C#Cc2cnc3ccc(-c4ccc(C(=O)N5CCOCC5)cc4)nn23)ccn1` [Example 063, 2-methyl-N-(4-((6-(4-(morpholine-4-carbonyl)phenyl)imidazo[1,2-b]pyridazin-3-yl)ethynyl)pyridin-2-yl)benzamide]: the figures for the IC50 in test [1], in test [2] and in test [3] were less than 0.5 µM, less than 0.5 µM and less than 5 µM, respectively.
In the case of `O=C(Nc1cc(C#Cc2cnc3ccc(-c4ccc(C(=O)N5CCOCC5)cc4)nn23)ccn1)c1ccncc1` [Example 064, N-(4-((6-(4-(morpholine-4-carbonyl)phenyl)imidazo[1,2-b]pyridazin-3-yl)ethynyl)pyridin-2-yl)isonicotinamide], the results for the concentration for half-maximal inhibition (IC50) in test [1], in test [2] and in test [3] were less than 0.5 µM, less than 0.5 µM and less than 5 µM, respectively.
`O=C(Nc1cc(C#Cc2cnc3ccc(-c4ccc(C(=O)N5CCOCC5)cc4)nn23)ccn1)c1cccnc1` [Example 065, N-(4-((6-(4-(morpholine-4-carbonyl)phenyl)imidazo[1,2-b]pyridazin-3-yl)ethynyl)pyridin-2-yl)nicotinamide]: the IC50 in test [1] was less than 0.5 µM; in test [2] it was less than 0.5 µM; in test [3] it was less than 5 µM.
Take `O=C(c1ccc(-c2ccc3ncc(C#Cc4ccnc(-c5ccccc5)c4)n3n2)cc1)N1CCOCC1` [Example 070, morpholino(4-(3-((2-phenylpyridin-4-yl)ethynyl)imidazo[1,2-b]pyridazin-6-yl)phenyl)methanone]: the values for the IC50 in test [1], in test [2] and in test [3] were less than 0.5 µM, less than 0.5 µM and less than 5 µM, respectively.
For `CN(c1ccccc1)c1cc(C#Cc2cnc3ccc(-c4ccc(C(=O)N5CCOCC5)cc4)nn23)ccn1` [Example 071, (4-(3-((2-(methyl(phenyl)amino)pyridin-4-yl)ethynyl)imidazo[1,2-b]pyridazin-6-yl)phenyl) (morpholino) methanone], the IC50 in test [1] is less than 0.5 µM; in test [2] it was less than 0.5 µM; in test [3] it was less than 5 µM.
As to `O=C(c1ccc(-c2ccc3ncc(C#Cc4cc(NCc5ccccc5)nc5[nH]ccc45)n3n2)cc1)N1CCOCC1` [Example 073, (4-(3-((6-(benzylamino)-1H-pyrrolo[2,3-b]pyridin-4-yl)ethynyl)imidazo[1,2-b]pyridazin-6-yl)phenyl)(morpholino)methanone], the concentration for half-maximal inhibition (IC50) in test [1] was less than 0.5 µM; in test [2], less than 0.5 µM; in test [3], less than 5 µM.
As to `NC(=O)c1ccc(-c2ccc3ncc(C#Cc4ccnc(N)c4)n3n2)cc1` [Example 074, 4-(3-((2-aminopyridin-4-yl)ethynyl)imidazo[1,2-b]pyridazin-6-yl)benzamide], the IC50 in test [1] is less than 0.5 µM; in test [2], less than 0.5 µM; in test [3] it was less than 5 µM.
With `C(#Cc1cnc2ccc(-c3ccc(CN4CCOCC4)cc3)nn12)c1ccnc2[nH]ccc12` [Example 075, 4-(4-(3-((1H-pyrrolo[2,3-b]pyridin-4-yl)ethynyl)imidazo[1,2-b]pyridazin-6-yl)benzyl)morpholine], the IC50 in test [1] is less than 0.5 µM; in test [2], less than 0.5 µM; in test [3] it was less than 5 µM.
As to `CN1CCN(C(=O)c2ccc(-c3cn4c(C#Cc5ccccc5)cnc4cn3)cc2)CC1` [Example 089, (4-methylpiperazin-1-yl) (4-(3-(phenylethynyl)imidazo[1,2-a]pyrazin-6-yl)phenyl)methanone], the IC50 in test [1] is less than 0.5 µM; in test [2] it was less than 0.5 µM; in test [3], less than 5 µM.
Take `O=C(c1ccc(-c2ccc3ncc(C#Cc4ccncc4)n3c2)cc1)N1CCOCC1` [Example 094]: the values for the IC50 in test [1], in test [2] and in test [3] were less than 0.5 µM, less than 0.5 µM and less than 5 µM, respectively.
In the case of `Cc1cnccc1C#Cc1cnc2ccc(-c3ccc(C(=O)N4CCOCC4)cc3)cn12` [Example 095, (4-(3-((3-methylpyridin-4-yl)ethynyl)imidazo[1,2-a]pyridin-6-yl)phenyl) (morpholino)methanone], the half-inhibitory concentration (IC50) was less than 0.5 µM in test [1], less than 0.5 µM in test [2] and less than 5 µM in test [3].
On to `Nc1cc(C#Cc2cnc3ccc(-c4ccc(C(=O)N5CCOCC5)cc4)cn23)ccn1` [Example 096], for which the IC50 in test [1] was less than 0.5 µM; in test [2] it was less than 0.5 µM; in test [3] it was less than 5 µM.
In the case of `O=C(c1ccc(-c2ccc3ncc(C#Cc4ccnc5[nH]ncc45)n3c2)cc1)N1CCOCC1` [Example 097, (4-(3-((1H-pyrazolo[3,4-b]pyridin-4-yl)ethynyl)imidazo[1,2-a]pyridin-6-yl)phenyl)(morpholino)methanone], the IC50 was less than 0.5 µM in test [1], less than 0.5 µM in test [2] and less than 5 µM in test [3].
As for `Nc1cc(C#Cc2cnc3ccc(-c4ccc(C(=O)N5CCOCC5)cc4)cn23)c2cc[nH]c2n1` [Example 098, (4-(3-((6-amino-1H-pyrrolo[2,3-b]pyridin-4-yl)ethynyl)imidazo[1,2-a]pyridin-6-yl)phenyl)(morpholino)methanone], the IC50 was less than 0.5 µM in test [1], less than 0.5 µM in test [2] and less than 5 µM in test [3].
On to `O=C(c1ccc(-c2ccc3ncc(C#Cc4ccnc5[nH]ccc45)n3c2)cc1)N1CCOCC1` [Example 099, (4-(3-((1H-pyrrolo[2,3-b]pyridin-4-yl)ethynyl)imidazo[1,2-a]pyridin-6-yl)phenyl)(morpholino)methanone], for which the IC50 in test [1] was less than 0.5 µM; in test [2], less than 0.5 µM; in test [3], less than 5 µM.

What is called IC50 is the midpoint of a concentration-inhibition curve.
